Tests used:
[1] = In vitro metabolic stability in human liver microsomes (LC-MS); assay type: in vitro ADME; details: for % of compound remaining after 120 min incubation: HLM 0.53 mg/mL, 1 mM NADPH, compound 10 µM, phosphate buffer pH 7.4, 37°C, percentage of peak area of trans isomer at start of incubation
Protocol: Stock solutions of the studied compounds were made at a concentration of 1 mM in DMSO:MeOH mixture (10∶90 v/v) to prevent their precipitation. For biotransformation incubations, the solution of compounds was diluted to 10 µM with the presence of 1 mM of NADPH (Sigma-Aldrich, St. Louis, MO, USA) in a potassium phosphate buffer (0.1 M, pH 7.4). Incubation was carried out in thermoblock (Labnet International, Edison, NJ, USA) at 37°C and started with the addition of pooled human liver microsomes with a final concentration of 0.53 mg/mL (Sigma-Aldrich, St. Louis, MO, USA). Directly after HLM was added and at 120 min of incubation the reaction was ended by the addition of an equal volume of ice-cold methanol with 0.1% (v/v) of formic acid. The samples were immediately centrifuged (10 min at 11700 g) and the resulting supernatant was directly analyzed or kept at −80°C until LC-MS or LC-QTOF-MS analysis.
(§1) LC-MS analysis was performed on an Agilent 1260 system coupled to a SingleQuad 6120 mass spectrometer (Agilent Technologies, Santa Clara, CA, USA). The amount of remaining parent compound was determined as a percentage of a peak area of a trans isomer at the start of the incubation.
(§2) A Poroshell C18 EC120 column (3.0×100 mm, 2.7 µm, Agilent Technologies, Santa Clara, CA, USA) was used in reversed-phase mode with gradient elution starting with 5% of phase A (0.1% formic acid in water) and 95% of phase B (0.1% formic acid in acetonitrile). […] The total analysis time was 42 min at 25°C, the flow rate was 0.25 mL/min and the injection volume was 20 µL. The mass spectrometer was equipped with an electrospray ionization source and the ionization mode was positive. The mass analyzer was set individually to each derivative to detect pseudomolecular ions [M+H^+]. The mass spectrometry detector parameters of the ESI source were as follows: nebulizer pressure 40 psi (N2), drying gas […] (N2), drying gas temperature 300°C, capillary voltage +3 kV.

[2] = Chemical stability / cis-trans isomerization in solution (LC-MS); assay type: physicochemical; details: for % of isomerization at the beginning of incubation: biotransformation incubation samples, start of incubation
Protocol: Additionally, chemical stability (negative control) in biotransformation experiment conditions was performed (phosphate buffer, 37°C, 2 h) to evaluate possible instability, unrelated to the activity of microsomes (including putative isomerization).
as §1, §2

[3] = RP-LC determination of chromatographic lipophilicity log kw (DryLab); assay type: physicochemical; details: Poroshell EC18 column, 30°C, acetonitrile 5-100% gradients of 30 and 60 min, calculated with DryLab
Protocol: (2) In order to obtain input lipophilicity data, reversed-phase liquid chromatography (RP-LC) log kw determination experiments were performed using the Agilent 1260 apparatus (Agilent Technologies, Santa Clara, CA, USA) equipped with UV and single quadrupole mass detectors, and an autosampler and column thermostat. A Poroshell EC18 150×3 mm column with a particle size of 2.7 µm was applied. Chromatographic measurements were made at 30°C with an eluent flow rate of 0.25 mL/min. Two chromatographic runs were conducted for each compound with different linear gradient times (30 and 60 min), and with an acetonitrile composition in the mobile phase increasing from 5% to 100%. The obtained retention times were further used to calculate log kw values applying the DryLab 2000 Plus software (LC Resources, Walnut Creek, CA, USA). DryLab estimated the log kw value according to the linear equation: log k = logkw+Sφ (k – retention factor, S – slope, φ – volume fraction of the organic modifier) The elution program, as well as the column, mobile phase and instrument properties were taken into account to determine the coefficients in the abovementioned equation. Two analytical runs were required to fit the data, and peak assignment was done manually to ensure the correct identification.

Row | SMILES | % of compound remaining after 120 min incubation [1] | % of isomerization at the beginning of incubation [2] | biotransformation reactions observed ([1]; HLM with NADPH, LC-MS/MS) | logkw [3] | cis-trans isomerization in the studied conditions ([2]; water solution / incubation conditions)
1 | CCC/C(=N\Nc1ccc([N+](=O)[O-])cc1)Sc1cc(Cl)c(C)cc1S(N)(=O)=O [Compound 2] | 75.13% | 6.52% | – | – | –
2 | CCCCC/C(=N\Nc1ccc([N+](=O)[O-])cc1)Sc1cc(Cl)c(C)cc1S(N)(=O)=O [Compound 7] | 60.90% | 5.53% | – | – | –
3 | Cc1cc(S(N)(=O)=O)c(S/C(=N/Nc2ccc([N+](=O)[O-])cc2)C(C)C)cc1Cl [Compound 3] | 76.13% | 7.76% | – | – | –
4 | Cc1cc(S(N)(=O)=O)c(S/C(=N/Nc2ccc([N+](=O)[O-])cc2)c2ccc([N+](=O)[O-])cc2)cc1Cl [Compound 11] | 98.97% | 1.50% | – | – | –
5 | Cc1cc(S(N)(=O)=O)c(S/C(=N/Nc2ccc([N+](=O)[O-])cc2)C(C)(C)C)cc1Cl [Compound 6] | 83.88% | 3.50% | – | – | –
6 | Cc1cc(S(N)(=O)=O)c(S/C(=N/Nc2ccc([N+](=O)[O-])cc2[N+](=O)[O-])C(C)C)cc1Cl [Compound 4] | 62.86% | 0.00% | – | – | did not occur
7 | Cc1cc(S(N)(=O)=O)c(S/C(CC(C)C)=N/Nc2ccc([N+](=O)[O-])cc2)cc1Cl [Compound 5] | 79.95% | 5.84% | – | – | –

Second part, led by results:

Row | % of compound remaining after 120 min incubation [1] | % of isomerization at the beginning of incubation [2] | biotransformation reactions observed ([1]; HLM with NADPH, LC-MS/MS) | logkw [3] | SMILES | cis-trans isomerization in the studied conditions ([2]; water solution / incubation conditions)
8 | 95.33% | 2.66% | – | – | COc1ccc(/C(=N\Nc2ccc([N+](=O)[O-])cc2)Sc2cc(Cl)c(C)cc2S(N)(=O)=O)cc1 [Compound 13] | –
9 | 74.88% | – | reductive debromination reaction | – | Cc1cc(S(N)(=O)=O)c(SC(=NNc2ccc([N+](=O)[O-])cc2)c2ccc(O)c(Br)c2)cc1Cl [Compound 14] | –
10 | 58.23% | 5.25% | – | – | Cc1cc(S(N)(=O)=O)c(S/C(CCc2ccccc2)=N/Nc2ccc([N+](=O)[O-])cc2)cc1Cl [Compound 8] | –
11 | 53.51% | 5.84% | – | – | CCC(=NNc1ccc([N+](=O)[O-])cc1)Sc1cc(Cl)c(C)cc1S(N)(=O)=O [Compound 1] | –
12 | – | – | – | 3.52 | CC/C(=N/Nc1ccc([N+](=O)[O-])cc1)Sc1cc(Cl)c(C)cc1S(N)(=O)=O [1-cis] | –
13 | 99.40% | 4.93% | – | – | Cc1cc(S(N)(=O)=O)c(S/C(=N/Nc2ccc([N+](=O)[O-])cc2)c2ccc3ccccc3c2)cc1Cl [Compound 15] | –
14 | – | – | – | 3.60 | CC/C(=N\Nc1ccc([N+](=O)[O-])cc1)Sc1cc(Cl)c(C)cc1S(N)(=O)=O [1-trans] | –
15 | 96.03% | 9.28% | – | – | Cc1cc(S(N)(=O)=O)c(S/C(=N/Nc2ccc([N+](=O)[O-])cc2)c2ccccc2)cc1Cl [Compound 9] | –
16 | 95.11% | 5.41% | – | – | Cc1ccc(/C(=N\Nc2ccc([N+](=O)[O-])cc2)Sc2cc(Cl)c(C)cc2S(N)(=O)=O)cc1 [Compound 12] | –
17 | 90.80% | 7.79% | – | – | Cc1cc(S(N)(=O)=O)c(S/C(=N/Nc2ccc([N+](=O)[O-])cc2)c2ccc(Cl)cc2)cc1Cl [Compound 10] | –

Reference: PMC4043666, “Mass Spectrometry Based Identification of Geometric Isomers during Metabolic Stability Study of a New Cytotoxic Sulfonamide Derivatives Supported by Quantitative Structure-Retention Relationships” (PLoS ONE, 2014)
